From ChEMBL document CHEMBL1153814, “Synthesis of 3-deoxypentacyclic triterpene derivatives as inhibitors of glycogen phosphorylase” (J Nat Prod, 2009)

target: T1, Glycogen phosphorylase, muscle form (Oryctolagus cuniculus, UniProt P00489); assay: Inhibition of rabbit muscle glycogen phosphorylase assessed as release of phosphate from glucose-1-phosphate after 25 mins; conditions: not given
T1 sequence (P00489 whole entry): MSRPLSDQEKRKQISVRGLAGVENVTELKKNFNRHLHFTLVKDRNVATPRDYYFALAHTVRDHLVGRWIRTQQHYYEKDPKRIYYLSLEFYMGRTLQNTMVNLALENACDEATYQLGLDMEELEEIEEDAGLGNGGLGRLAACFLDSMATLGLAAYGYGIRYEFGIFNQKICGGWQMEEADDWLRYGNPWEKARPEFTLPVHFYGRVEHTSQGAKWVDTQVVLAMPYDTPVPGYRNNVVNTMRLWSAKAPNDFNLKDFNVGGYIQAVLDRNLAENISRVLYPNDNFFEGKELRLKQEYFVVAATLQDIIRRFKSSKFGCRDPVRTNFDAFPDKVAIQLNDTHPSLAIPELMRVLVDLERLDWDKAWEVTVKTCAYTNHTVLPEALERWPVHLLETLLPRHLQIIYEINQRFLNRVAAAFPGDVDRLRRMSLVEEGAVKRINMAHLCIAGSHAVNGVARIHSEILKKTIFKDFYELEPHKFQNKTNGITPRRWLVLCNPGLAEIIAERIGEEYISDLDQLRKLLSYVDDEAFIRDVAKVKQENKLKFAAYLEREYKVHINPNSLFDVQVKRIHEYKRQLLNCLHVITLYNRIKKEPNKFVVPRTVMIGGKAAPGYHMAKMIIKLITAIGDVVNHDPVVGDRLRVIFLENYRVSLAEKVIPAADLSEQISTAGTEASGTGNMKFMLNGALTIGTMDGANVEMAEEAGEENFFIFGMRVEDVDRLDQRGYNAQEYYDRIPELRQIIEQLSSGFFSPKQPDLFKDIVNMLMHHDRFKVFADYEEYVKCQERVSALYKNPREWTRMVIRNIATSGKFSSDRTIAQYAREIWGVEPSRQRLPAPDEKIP

How did the IC50 turn out when `CC1(C)CC[C@]2(C(=O)O)CC[C@]3(C)C(=CC[C@@H]4[C@@]5(C)C[C@@H](OC(=O)CCC(=O)O)CC(C)(C)[C@@H]5CC[C@]43C)[C@@H]2C1` was run?
Its IC50 is “Not Active”.

How did the IC50 turn out when `CC(=O)O[C@H]1CC(C)(C)[C@@H]2CC[C@]3(C)[C@H](CC=C4[C@@H]5CC(C)(C)CC[C@]5(C(=O)OCc5ccccc5)CC[C@]43C)[C@@]2(C)C1` was run?
The IC50 was “Not Active”.

same assay, conditions: read-out: IC50

`CC1CC[C@]2(C(=O)OCc3ccccc3)CC[C@]3(C)C(=CC[C@@H]4[C@@]5(C)C[C@H](O)CC(C)(C)[C@@H]5CC[C@]43C)[C@@H]2[C@H]1C` (stereo partly specified) was tested. Which IC50 did it give?
The IC50 was 22.3 µM.

For `C[C@H]1[C@H](C)CC[C@]2(C(=O)OCc3ccccc3)CC[C@]3(C)C(=CC[C@@H]4[C@@]5(C)C[C@@H](O)CC(C)(C)[C@@H]5CC[C@]43C)[C@H]12`, which IC50 is on record?
Its IC50 is 55.8 µM.

With `CCC(=O)O[C@H]1CC(C)(C)[C@@H]2CC[C@]3(C)[C@H](CC=C4[C@@H]5CC(C)(C)CC[C@]5(C(=O)OCc5ccccc5)CC[C@]43C)[C@@]2(C)C1` as the compound, how does the IC50 read?
Its IC50 is 121 µM.

`CCCC(=O)O[C@H]1CC(C)(C)[C@@H]2CC[C@]3(C)[C@H](CC=C4[C@@H]5CC(C)(C)CC[C@]5(C(=O)OCc5ccccc5)CC[C@]43C)[C@@]2(C)C1` was tested. Which IC50 did it give?
Its IC50 is 108 µM.

Which IC50 does the source give for `CCCC(=O)O[C@H]1CC(C)(C)[C@@H]2CC[C@]3(C)[C@H](CC=C4[C@@H]5CC(C)(C)CC[C@]5(C(=O)O)CC[C@]43C)[C@@]2(C)C1` here?
Its IC50 is 75.6 µM.

With `CC1(C)CC[C@]2(C(=O)OCc3ccccc3)CC[C@]3(C)C(=CC[C@@H]4[C@@]5(C)C[C@@H](OC(=O)c6ccccc6)CC(C)(C)[C@@H]5CC[C@]43C)[C@@H]2C1` as the compound, how does the IC50 read?
Its IC50 is 48.4 µM.

For `CC1(C)CC[C@]2(C(=O)O)CC[C@]3(C)C(=CC[C@@H]4[C@@]5(C)C[C@@H](OC(=O)c6ccccc6)CC(C)(C)[C@@H]5CC[C@]43C)[C@@H]2C1`, which IC50 is on record?
The IC50 was 40.7 µM.

How did the IC50 turn out when `CC1(C)CC[C@]2(C(=O)OCc3ccccc3)CC[C@]3(C)C(=CC[C@@H]4[C@@]5(C)C[C@@H](OC(=O)CCC(=O)O)CC(C)(C)[C@@H]5CC[C@]43C)[C@@H]2C1` was run?
The IC50 was 80.9 µM.

`CC1(C)CC[C@]2(C(=O)OCCCCBr)CC[C@]3(C)C(=CC[C@@H]4[C@@]5(C)C[C@H](O)CC(C)(C)[C@@H]5CC[C@]43C)[C@@H]2C1` was tested. Which IC50 did it give?
The IC50 was 48.7 µM.

`C[C@@H]1[C@H]2C3=CC[C@@H]4[C@@]5(C)C[C@@H](O)CC(C)(C)[C@@H]5CC[C@@]4(C)[C@]3(C)CC[C@@]2(C(=O)OCc2ccccc2)CCC1(C)C` was tested. Which IC50 did it give?
Its IC50 is 5.6 µM.

For `C[C@H]1[C@H](C)CC[C@]2(C(=O)OCc3ccccc3)CC[C@]3(C)C(=CC[C@@H]4[C@@]5(C)C/C(=N\O)CC(C)(C)[C@@H]5CC[C@]43C)[C@H]12`, which IC50 is on record?
Its IC50 is 20.2 µM.

`CC1(C)CC[C@]2(C(=O)OCc3ccccc3)CC[C@]3(C)C(=CC[C@@H]4[C@@]5(C)C[C@H](O)CC(C)(C)[C@@H]5CC[C@]43C)[C@@H]2C1` was tested. Which IC50 did it give?
The IC50 was 4.2 µM.

Which IC50 does the source give for `CC1(C)CC[C@]2(C(=O)O)CC[C@]3(C)C(=CC[C@@H]4[C@@]5(C)C[C@@H](O)CC(C)(C)[C@@H]5CC[C@]43C)[C@@H]2C1` here?
Its IC50 is 8.5 µM.

`CCCCOC(=O)[C@]12CCC(C)(C)C[C@H]1C1=CC[C@@H]3[C@@]4(C)C[C@H](O)CC(C)(C)[C@@H]4CC[C@@]3(C)[C@]1(C)CC2` was tested. Which IC50 did it give?
Its IC50 is 13.8 µM.

How did the IC50 turn out when `C=CCOC(=O)[C@]12CCC(C)(C)C[C@H]1C1=CC[C@@H]3[C@@]4(C)C[C@H](O)CC(C)(C)[C@@H]4CC[C@@]3(C)[C@]1(C)CC2` was run?
Its IC50 is 23.1 µM.

With `COC(=O)[C@]12CCC(C)(C)C[C@H]1C1=CC[C@@H]3[C@@]4(C)C[C@H](O)CC(C)(C)[C@@H]4CC[C@@]3(C)[C@]1(C)CC2` as the compound, how does the IC50 read?
The IC50 was 28.1 µM.

How did the IC50 turn out when `CCOC(=O)[C@]12CCC(C)(C)C[C@H]1C1=CC[C@@H]3[C@@]4(C)C[C@H](O)CC(C)(C)[C@@H]4CC[C@@]3(C)[C@]1(C)CC2` was run?
The IC50 was 15.3 µM.

For `CCCOC(=O)[C@]12CCC(C)(C)C[C@H]1C1=CC[C@@H]3[C@@]4(C)C[C@H](O)CC(C)(C)[C@@H]4CC[C@@]3(C)[C@]1(C)CC2`, which IC50 is on record?
Its IC50 is 27.3 µM.

For `C[C@H]1[C@H](C)CC[C@]2(C(=O)O)CC[C@]3(C)C(=CC[C@@H]4[C@@]5(C)C/C(=N\O)CC(C)(C)[C@@H]5CC[C@]43C)[C@H]12`, which IC50 is on record?
Its IC50 is 14.7 µM.

For `CC1(C)CC[C@]2(C(=O)OCCBr)CC[C@]3(C)C(=CC[C@@H]4[C@@]5(C)C[C@H](O)CC(C)(C)[C@@H]5CC[C@]43C)[C@@H]2C1`, which IC50 is on record?
The IC50 was 25.4 µM.

For `CC1(C)CC[C@]2(C(=O)OCCCBr)CC[C@]3(C)C(=CC[C@@H]4[C@@]5(C)C[C@H](O)CC(C)(C)[C@@H]5CC[C@]43C)[C@@H]2C1`, which IC50 is on record?
Its IC50 is 37.2 µM.

For `CC1(C)CC[C@]2(C(=O)OCc3ccccc3)CC[C@]3(C)C(=CC[C@@H]4[C@@]5(C)CC(=O)CC(C)(C)[C@@H]5CC[C@]43C)[C@@H]2C1`, which IC50 is on record?
Its IC50 is 3.2 µM.

With `C[C@H]1[C@H](C)CC[C@]2(C(=O)OCc3ccccc3)CC[C@]3(C)C(=CC[C@@H]4[C@@]5(C)CC(=O)CC(C)(C)[C@@H]5CC[C@]43C)[C@H]12` as the compound, how does the IC50 read?
Its IC50 is 24.2 µM.

For `CC1(C)CC[C@]2(C(=O)OCc3ccccc3)CC[C@]3(C)C(=CC[C@@H]4[C@@]5(C)C/C(=N\O)CC(C)(C)[C@@H]5CC[C@]43C)[C@@H]2C1`, which IC50 is on record?
The IC50 was 16.3 µM.

`CCOC(=O)COC(=O)[C@]12CCC(C)(C)C[C@H]1C1=CC[C@@H]3[C@@]4(C)C[C@H](O)CC(C)(C)[C@@H]4CC[C@@]3(C)[C@]1(C)CC2` was tested. Which IC50 did it give?
The IC50 was 22.5 µM.

How did the IC50 turn out when `CC1(C)CC[C@]2(C(=O)O)CC[C@]3(C)C(=CC[C@@H]4[C@@]5(C)C/C(=N\O)CC(C)(C)[C@@H]5CC[C@]43C)[C@@H]2C1` was run?
Its IC50 is 13.1 µM.

For `CC(=O)O[C@H]1CC(C)(C)[C@@H]2CC[C@]3(C)[C@H](CC=C4[C@@H]5CC(C)(C)CC[C@]5(C(=O)O)CC[C@]43C)[C@@]2(C)C1`, which IC50 is on record?
Its IC50 is 42.4 µM.

How did the IC50 turn out when `C[C@H]1[C@H](C)CC[C@]2(C(=O)O)CC[C@]3(C)C(=CC[C@@H]4[C@@]5(C)C[C@@H](O)CC(C)(C)[C@@H]5CC[C@]43C)[C@H]12` was run?
The IC50 was 1.2 µM.

For `CCC(=O)O[C@H]1CC(C)(C)[C@@H]2CC[C@]3(C)[C@H](CC=C4[C@@H]5CC(C)(C)CC[C@]5(C(=O)O)CC[C@]43C)[C@@]2(C)C1`, which IC50 is on record?
Its IC50 is 80.2 µM.

With `CC1(C)CC[C@]2(C(=O)O)CC[C@]3(C)C(=CC[C@@H]4[C@@]5(C)C[C@H](O)CC(C)(C)[C@@H]5CC[C@]43C)[C@@H]2C1` as the compound, how does the IC50 read?
The IC50 was 3.5 µM.

How did the IC50 turn out when `C[C@@H]1[C@H]2C3=CC[C@@H]4[C@@]5(C)C[C@H](O)CC(C)(C)[C@@H]5CC[C@@]4(C)[C@]3(C)CC[C@@]2(C(=O)O)CC[C@@H]1C` was run?
The IC50 was 5.5 µM.

`CC1(C)CC[C@]2(C(=O)O)CC[C@]3(C)C(=CC[C@@H]4[C@@]5(C)CC(=O)CC(C)(C)[C@@H]5CC[C@]43C)[C@@H]2C1` was tested. Which IC50 did it give?
The IC50 was 14.9 µM.

`C[C@H]1[C@H](C)CC[C@]2(C(=O)O)CC[C@]3(C)C(=CC[C@@H]4[C@@]5(C)CC(=O)CC(C)(C)[C@@H]5CC[C@]43C)[C@H]12` was tested. Which IC50 did it give?
Its IC50 is 28.9 µM.

With `C[C@H]1[C@H](C)CC[C@]2(C(=O)O)CC[C@]3(C)C(=CC[C@@H]4[C@@]5(C)CC[C@H](O)C(C)(C)[C@@H]5CC[C@]43C)[C@H]12` [URSOLIC ACID] as the compound, how does the IC50 read?
Its IC50 is 15.3 µM.
